Measurements: PubChem BioAssay AID248 (DTP/NCI, 2004)
Values joined by “and” are separate entries in the source; they are usually repeats but may differ in a detail not shown here. Equal entries are not always repeated. Inconclusive results and toxic doses are left out. Rule as the data show it: active = T/C of 150% or more; inactive = T/C below 125%.

Tested on: L1210 leukemia ip in BDF1 mice, survival T/C
Test: NCI In Vivo Anticancer Drug Screen. Data for tumor model L1210 Leukemia (intraperitoneal) in B6D2F1 (BDF1) mice
Conditions: endpoint: mean survival time, higher = longer survival
How it was run: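 Transplanted-tumor mice were given test agent; controls received vehicle only. Survival readings from the two groups were divided (treated over control).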

[1] = dose: 100.0 mg/kg/injection, schedule: Q01DX009 (ip), vehicle: Klucel (hydroxypropylcellulose) (HPC)
[2] = dose: 200.0 mg/kg/injection, schedule: Q01DX009 (ip), vehicle: Klucel (hydroxypropylcellulose) (HPC)
[3] = dose: 100.0 mg/kg/injection, schedule: Q01DX001 (ip), vehicle: carboxymethylcellulose (CMC)
[4] = dose: 200.0 mg/kg/injection, schedule: Q01DX001 (ip), vehicle: carboxymethylcellulose (CMC)
[5] = dose: 100.0 mg/kg/injection, schedule: Q04DX003 (ip), vehicle: Klucel (hydroxypropylcellulose) (HPC)
[6] = dose: 200.0 mg/kg/injection, schedule: Q04DX003 (ip), vehicle: Klucel (hydroxypropylcellulose) (HPC)
[7] = dose: 400.0 mg/kg/injection, schedule: Q04DX003 (ip), vehicle: Klucel (hydroxypropylcellulose) (HPC)
[8] = dose: 200.0 mg/kg/injection, schedule: Q04DX002 (ip), vehicle: Klucel (hydroxypropylcellulose) (HPC)
[9] = dose: 400.0 mg/kg/injection, schedule: Q04DX002 (ip), vehicle: Klucel (hydroxypropylcellulose) (HPC)
[10] = dose: 100.0 mg/kg/injection, schedule: Q01DX001 (ip), vehicle: saline with Tween-80
[11] = dose: 200.0 mg/kg/injection, schedule: Q01DX001 (ip), vehicle: saline with Tween-80
[12] = dose: 400.0 mg/kg/injection, schedule: Q01DX001 (ip), vehicle: saline with Tween-80
[13] = dose: 400.0 mg/kg/injection, schedule: Q01DX009 (ip), vehicle: Klucel (hydroxypropylcellulose) (HPC)
[14] = dose: 100.0 mg/kg/injection, schedule: Q04DX002 (ip), vehicle: Klucel (hydroxypropylcellulose) (HPC)

Measured: T/C

O=[N+]([O-])c1ccc(Cc2ccccn2)cc1
inactive: dose: 100.0 mg/kg/injection, schedule: Q01DX001 (ip), vehicle: Klucel (hydroxypropylcellulose) (HPC) 104 % of control | [1] 95 % of control | dose: 200.0 mg/kg/injection, schedule: Q01DX001 (ip), vehicle: Klucel (hydroxypropylcellulose) (HPC) 108 % of control | [2] 101 % of control | dose: 400.0 mg/kg/injection, schedule: Q01DX001 (ip), vehicle: Klucel (hydroxypropylcellulose) (HPC) 112 % of control

COc1ccc(C(C)=O)cc1OCc1ccccc1
inactive: dose: 100.0 mg/kg/injection, schedule: Q01DX009 (ip), vehicle: water 112 % of control | dose: 100.0 mg/kg/injection, schedule: Q04DX003 (ip), vehicle: water 98 % of control | dose: 200.0 mg/kg/injection, schedule: Q01DX009 (ip), vehicle: water 108 % of control | dose: 200.0 mg/kg/injection, schedule: Q04DX003 (ip), vehicle: water 100 % of control | dose: 400.0 mg/kg/injection, schedule: Q01DX009 (ip), vehicle: water 103 % of control | dose: 400.0 mg/kg/injection, schedule: Q04DX003 (ip), vehicle: water 93 % of control

Nc1ccc2c(c1)-c1ccc(F)cc1C2=O
inactive: [3] 91 % of control | [4] 91 % of control | dose: 400.0 mg/kg/injection, schedule: Q01DX001 (ip), vehicle: carboxymethylcellulose (CMC) 89 % of control

O=C(O)c1ccc2ccccc2n1.[Cu+2]
inactive: dose: 100.0 mg/kg/injection, schedule: Q01DX001 (ip), vehicle: saline 93 % of control

CCCCCCCCCCCCCCCCCCCCC1CC(=O)OC1=O (centres undefined)
inactive: [5] 91 % of control | [6] 92 % of control | [7] 91 % of control

CC(C)=CC(=O)C1C(=O)c2ccccc2C1=O
inactive: dose: 50.0 mg/kg/injection, schedule: Q01DX001 (ip), vehicle: carboxymethylcellulose (CMC) 96 % of control | [3] 90 % of control

CCN(CC)CCN(C)CC(=O)Nc1ccccc1C
inactive: dose: 75.0 mg/kg/injection, schedule: Q01DX001 (ip), vehicle: saline 100 % of control | dose: 150.0 mg/kg/injection, schedule: Q01DX001 (ip), vehicle: saline 103 % of control | dose: 300.0 mg/kg/injection, schedule: Q01DX001 (ip), vehicle: saline 101 % of control

CC(C)(C)NC(=O)C1C2C=CC(C2)C1C(=O)NC(C)(C)C (centres undefined)
inactive: dose: 100.0 mg/kg/injection, schedule: Q04DX003 (ip), vehicle: saline with Tween-80 96 % of control | dose: 200.0 mg/kg/injection, schedule: Q04DX003 (ip), vehicle: saline with Tween-80 91 % of control | dose: 400.0 mg/kg/injection, schedule: Q04DX003 (ip), vehicle: saline with Tween-80 91 % of control

Nc1nc(Cl)c(Cl)nc1N
inactive: [5] 95 % of control | [6] 100 % of control | [7] 95 % of control

CCN(CC)CCO[C@H]1CC[C@@]2(C)C(=CC[C@@H]3[C@@H]2CC[C@]2(C)C(=O)CC[C@@H]32)C1
inactive: dose: 50.0 mg/kg/injection, schedule: Q01DX001 (sc), vehicle: steriod suspending solution 101 % of control | dose: 100.0 mg/kg/injection, schedule: Q01DX001 (sc), vehicle: steriod suspending solution 90 % of control

O=c1c2ncn(C3OC(CO)C(O)C3O)c2nc2n1N=CC(O)N2 (centres undefined)
inactive: dose: 100.0 mg/kg/injection, schedule: Q01DX005 (ip), vehicle: saline 120 % of control | dose: 200.0 mg/kg/injection, schedule: Q01DX005 (ip), vehicle: saline 120 % of control

CNC(Cc1ccccc1)C1CCCCC1 (centres undefined)
inactive: dose: 6.0 mg/kg/injection, schedule: Q04DX003 (ip), vehicle: Klucel (hydroxypropylcellulose) (HPC) 93 % of control | dose: 12.0 mg/kg/injection, schedule: Q01DX009 (ip), vehicle: Klucel (hydroxypropylcellulose) (HPC) 98 % of control | dose: 12.0 mg/kg/injection, schedule: Q04DX003 (ip), vehicle: Klucel (hydroxypropylcellulose) (HPC) 98 % of control | dose: 25.0 mg/kg/injection, schedule: Q01DX009 (ip), vehicle: Klucel (hydroxypropylcellulose) (HPC) 98 % of control | dose: 25.0 mg/kg/injection, schedule: Q04DX003 (ip), vehicle: Klucel (hydroxypropylcellulose) (HPC) 95 % of control and 109 % of control | dose: 50.0 mg/kg/injection, schedule: Q01DX009 (ip), vehicle: Klucel (hydroxypropylcellulose) (HPC) 95 % of control

O=C(O)c1ccc([N+](=O)[O-])cc1O
inactive: [3] 101 % of control | dose: 100.0 mg/kg/injection, schedule: Q04DX002 (ip), vehicle: saline with Tween-80 95 % of control | [4] 97 % of control | dose: 200.0 mg/kg/injection, schedule: Q04DX002 (ip), vehicle: saline with Tween-80 98 % of control | dose: 400.0 mg/kg/injection, schedule: Q04DX002 (ip), vehicle: saline with Tween-80 102 % of control

CCCCCCCCC(=O)N1CCC(C)CC1
inactive: [8] 106 % of control | [9] 95 % of control

CCOC(=O)c1c(C)nc(C)c(C(=O)OCC)c1C
inactive: [10] 101 % of control | [11] 99 % of control | [12] 95 % of control

O=C(O)CN1C(=O)c2cccc([N+](=O)[O-])c2C1=O
inactive: [1] 100 % of control | [2] 100 % of control | [13] 101 % of control

CCCCS(=O)(=O)CS(=O)(=O)CC
inactive: [10] 98 % of control | [11] 91 % of control | [12] 105 % of control

Cc1cccc(C)c1NC(=O)Oc1c(C)cccc1C
inactive: [1] 106 % of control | [5] 102 % of control | [2] 101 % of control | [6] 102 % of control | [13] 97 % of control | [7] 100 % of control

CC1(C)CC(=O)C(C23C=CC2=C(CO)C(=O)OC3)C1 (centres undefined)
inactive: dose: 5.0 mg/kg/injection, schedule: Q01DX001 (ip), vehicle: saline 96 % of control | dose: 10.0 mg/kg/injection, schedule: Q01DX001 (ip), vehicle: saline 96 % of control | dose: 20.0 mg/kg/injection, schedule: Q01DX001 (ip), vehicle: saline 98 % of control | dose: 40.0 mg/kg/injection, schedule: Q01DX001 (ip), vehicle: saline 110 % of control

N=c1c(-c2ccccc2)cc2ccccc2n1O
inactive: dose: 75.0 mg/kg/injection, schedule: Q01DX001 (ip), vehicle: other 103 % of control | dose: 150.0 mg/kg/injection, schedule: Q01DX001 (ip), vehicle: other 101 % of control | dose: 300.0 mg/kg/injection, schedule: Q01DX001 (ip), vehicle: other 98 % of control

CCOC(=O)c1ccc(NC(=O)OC2CCCC2)cc1
inactive: [1] 100 % of control | [2] 101 % of control | [13] 92 % of control

CC1(C)CC(=O)C2=C(C1)Nc1ccccc1NC2c1ccccc1 (centres undefined)
inactive: dose: 50.0 mg/kg/injection, schedule: Q04DX002 (ip), vehicle: Klucel (hydroxypropylcellulose) (HPC) 92 % of control | [14] 110 % of control and 113 % of control | [8] 92 % of control | [9] 98 % of control

c1ccc(Cc2ccccc2)cc1
inactive: [14] 101 % of control | [8] 105 % of control | [9] 92 % of control

CCCCCCCN(CCCCCCC)CC(O)c1cc2ccc(Cl)cc2nc1-c1ccc(Cl)cc1 (centres undefined)
inactive: [1] 87 % of control | [2] 97 % of control | [13] 87 % of control

Cc1cc(C(=O)C(C#N)=Nc2ccc(N(C)C)cc2)c(CN2C(=O)c3ccccc3C2=O)c(=O)n1C
inactive: dose: 100.0 mg/kg/injection, schedule: Q01DX001 (ip), vehicle: water 92 % of control | dose: 200.0 mg/kg/injection, schedule: Q01DX001 (ip), vehicle: water 94 % of control | dose: 400.0 mg/kg/injection, schedule: Q01DX001 (ip), vehicle: water 94 % of control
